In brackets after ≈: the same amount, converted by molar mass.
Legend:
Type in all cases: cell-based
[1] = tested on: Enterococcus hirae ATCC10541; test: Antibacterial activity, agar dilution method; design: key: —: Inactive; conditions: pH 7
Protocol: (§1) Antibacterial activity was determined by the agar dilution method using a medium prepared by dissolving 3 g of Bacto trypton (Difco), 3 g of meat extract, 1 g of yeast extract, 1 g of glucose, and 16 g of agar in 1 L of water (pH 7). The antibacterial activities of typical compounds are shown in Table 6 as minimum growth inhibitory concentrations (MIC)

[2] = tested on: Staphylococcus aureus ATCC6538P; test: Antibacterial activity, agar dilution method; design: key: —: Inactive; conditions: pH 7
Protocol: as §1

[3] = tested on: Bacillus Subtilis ATCC107O7; test: Antibacterial activity, agar dilution method; design: key: —: Inactive; conditions: pH 7
Protocol: as §1

MCF-7 cell = test: Growth inhibition test for hormone-dependent human breast cancer MCF-7 cell strain (MTT); conditions: 72 hours
Protocol: Cells were placed in each well of a 96-well microplate (Nunc, #167008) in an amount of 4000 cells per well, and the cells were pre-cultured in RPMI 1640 medium containing 5% fetal calf serum (FCS) for 24 hours in a 5% carbon dioxide gas incubator at 37° C. Then, a solution of each test compound in dimethyl sulfoxide (DMSO) prepared at a concentration of 10 mmol/L was serially diluted with the culture medium and added to each well (final volume: 100 μL/well). The cells were then further cultured for 72 hours in a 5% carbon dioxide gas incubator at 37° C. Five hours before completion of the culture, 4,5-dimethylthiazol-2-yl)-2,5-diphenyltetrazolium bromide (Sigma, abbreviated as “MTT” hereinafter) prepared at a concentration of 6 mg/mL with the culture medium was added in an amount of 10 μL per well. After the completion of culture, the medium was sucked, DMSO was added to each well in an amount of 150 μL per well and the mixture was vigorously stirred by using a plate mixer to completely dissolve the crystals of MTT-formazan. Then, difference of absorbance at 550 nm and 630 nm was determined by using a microplate reader (M-Spmax250, Wako Pure Chemicals). Inhibitory activity on the cell growth was calculated as 50% growth inhibitory concentration (IC50) based on a 4-parameter logistic calibration curve by using the formula of the analysis software (SOFTmax-J Ver.2.1) equipped with microplate reader.

HeLa/bcl-2 cells [4] = test: Anti-Fas antibody-dependent apoptosis inducing activity for HeLa/bcl-2 cells; conditions: Drug concentration: 5 μM, added simultaneously with anti-Fas monoclonal antibody (CH11, 10 ng); 6 hours; Anti-Fas antibody = 100
Description: In HeLa/bcl-2 cells into which the bcl-2 gene is introduced, apoptosis is suppressed by the bcl-2 gene. For this reason, they acquire resistance to apoptosis induced by various anticancer agents or anti-Fas antibodies. Test compounds were examined in their eliminating effect on the apoptosis resistance of HeLa/bcl-2 by simultaneously adding an anti-Fas antibody and each test compound to HeLa/bcl-2 cells and detecting enzymatic activity of caspase that was activated in the process of apoptosis induction as described below. HeLa/bcl-2 cells in Medium A were placed in each well of a 96-well microtiter plate in an amount of 3×10^4 cells. The plate was incubated in a carbon dioxide gas incubator at 37° C. for 12 hours, then each test compound appropriately diluted with Medium A (10 μl) and an anti-Fas monoclonal antibody (CH11, 10 ng) were simultaneously added to each well, and the plate was further incubated in a carbon dioxide gas incubator at 37° C. for 6 hours. After the culture supernatant was removed, the cells were lysed, and caspase activity was measured in the same manner as in Test Example 1. The enzymatic activity of caspase, which was not increased by an anti-Fas antibody alone, was increased by the treatment with the anti-Fas antibody together with the test compound.

HeLa/bcl-2 cells [5] = test: Apoptosis inducing activity (caspase activation, Ac-DEVD-AMC) for HeLa/bcl-2 cells; conditions: Drug concentration: 5 μM; 6 hours; No drug = 100
Protocol: (§2) Apoptosis inducing activity of the medicaments of the present invention was determined by measuring enzymatic activity of caspase activated in the process of apoptosis induction as described below,. HeLa cells or HeLa cells into which the bcl-2 gene was introduced (HeLa/bcl-2 cells) contained in DME medium containing 10% fetal calf serum (NISSUI PHARMACEUTICAL CO., LTD., referred to as “Medium A” hereinafter in the example) were placed in each well of 96-well microtiter plates in an amount of 3×10^4 cell. The cells on the plates were cultured in a carbon dioxide gas incubator at 37° C. for 12 hours, then a test compound appropriately diluted with Medium A was added to each well in an amount of 10 μl, and the cells were further cultured in a carbon dioxide gas incubator at 37° C. for 6 hours. After the culture supernatant was removed, the cells were lysed, and to the cell lysate was added a fluorescent substrate of caspase, Ac-DEVD-AMC (Peptide Laboratory). Then, the caspase activity was determined by measuring AMC (7-amino-4-methylcoumarin) released as a result of degradation of Ac-DEVD-AMC by caspase remained in the cell lysate through measurement of fluorescence intensity at 460 nm.

HeLa cells = test: Apoptosis inducing activity (caspase activation, Ac-DEVD-AMC) for HeLa cells; conditions: Drug concentration: 5 μM; 6 hours; No drug = 100
Protocol: as §2

HeLa/bcl-2 cells [6] = test: Cytotoxic activity for HeLa/bcl-2 cells (XTT staining); conditions: 24 hours, read-out: Growth Inhibition (IC50), HeLa/bcl-2 cell
Protocol: HeLa/bcl-2 cells in Medium A were placed in each well of a 96-well microtiter plate in an amount of 3×10^4 cells. The plate was incubated in a carbon dioxide gas incubator at 37° C. for 12 hours, then 10 μl of each test compound appropriately diluted with Medium A was added to each well, and the incubation was further continued in a carbon dioxide gas incubator at 37° C.

Row | Compound | MIC, EH [1] | MIC, SA [2] | MIC, BS [3] | IC50 (MCF-7 cell) [µM] | Rate of Caspase Activation, HeLa/bcl-2 cell (HeLa/bcl-2 cells [4]) [%] | Rate of Caspase Activation, HeLa/bcl-2 cell (HeLa/bcl-2 cells [5]) [%] | Rate of Caspase Activation, HeLa cell (HeLa cells) [%] | IC50 (HeLa/bcl-2 cells [6]) [µM]
1 | CCOC(OCC)C1=CC(O)C2/C=C(\C)C(OC3CC(C)([N+](=O)[O-])C(NC(=O)OC)C(C)O3)C/C=C(\C)C3C=CC4C(OC5CC(OC6CCC(OC7CC(O)C(OC8CCC(O)C(C)O8)C(C)O7)C(C)O6)C(OC(C)=O)C(C)O5)C(C)CC(C)C4C3(C)C(=O)C3=C(OC)C2(C1)OC3=O (stereo not shown) [Compound 38] | — | — | 12.5 µg/mL (≈ 8.92 µM) | 1.22 |  |  |  | 
2 | COC(=O)NC1C(C)OC(OC2C/C=C(\C)C3C=CC4C(OC5CC(OC6CCC(OC7CC(O)C(OC8CCC(O)C(C)O8)C(C)O7)C(C)O6)C(OC(C)=O)C(C)O5)C(C)CC(C)C4C3(C)C(=O)C3=C(O)C4(CC(C=O)=CC(O)C4/C=C/2C)OC3=O)CC1(C)[N+](=O)[O-] (stereo not shown) [Compound 1] |  |  |  |  | 964 |  |  | 
3 | COC(=O)NC1C(C)OC(OC2C/C=C(\C)C3C=CC4C(OC5CC(OC6CCC(O)C(C)O6)C(OC(C)=O)C(C)O5)C(C)CC(C)C4C3(C)C(=O)C3=C(O)C4(CC(C=NO)=CC(O)C4/C=C/2C)OC3=O)CC1(C)[N+](=O)[O-] (stereo not shown) [Compound 25] | — | — | >83 µg/mL |  |  |  |  | 
4 | COC(=O)NC1C(C)OC(OC2C/C=C(\C)C3C=CC4C(O[Si](C)(C)C(C)(C)C)C(C)CC(C)C4C3(C)C(=O)C3=C(O)C4(CC(C=O)=CC(O)C4/C=C/2C)OC3=O)CC1(C)[N+](=O)[O-] (stereo not shown) [Compound 22] | 21 µg/mL (≈ 23.4 µM) | 42 µg/mL (≈ 46.8 µM) | — |  | 444 | 1078 | 243 | 1.8
5 | COC(=O)C=CC1=CC(O)C2/C=C(\C)C(OC3CC(C)([N+](=O)[O-])C(NC(=O)OC)C(C)O3)C/C=C(\C)C3C=CC4C(OC5CC(OC6CCC(OC7CC(O)C(OC8CCC(O)C(C)O8)C(C)O7)C(C)O6)C(OC(C)=O)C(C)O5)C(C)CC(C)C4C3(C)C(=O)C3=C(O)C2(C1)OC3=O (stereo not shown) [Compound 37] | — | — | 0.42 µg/mL (≈ 0.307 µM) | 5.11 |  |  |  | 
6 | COC(=O)NC1C(C)OC(OC2CC=C(C)C3C=CC4C(OC5C=CC(OC(C)=O)C(C)O5)C(C)CC(C)C4C3(C)C(=O)C3=C(O)C4(CC(C=O)=CC(OC(C)=O)C4C=C2C)OC3=O)CC1(C)[N+](=O)[O-] (stereo not shown) [Compound 61] | — | — | 10.4 µg/mL (≈ 10.6 µM) | 1.45 | 452 | 370 | 213 | 
7 | COC(=O)NC1C(C)OC(OC2C/C=C(\C)C3C=CC4C(OC5CC(OC6CCC(OC7CC(O)C(O)C(C)O7)C(C)O6)C(OC(C)=O)C(C)O5)C(C)CC(C)C4C3(C)C(=O)C3=C(O)C4(CC(C=NO)=CC(O)C4/C=C/2C)OC3=O)CC1(C)[N+](=O)[O-] (stereo not shown) [Compound 24] | >92 µg/mL | >92 µg/mL | 2.9 µg/mL (≈ 2.39 µM) |  |  |  |  | 
8 | COC(=O)NC1C(C)OC(OC2CC=C(C)C3C=CC4C(OC5CC(OCc6ccccc6)C(OCc6ccccc6)C(COCc6ccccc6)O5)C(C)CC(C)C4C3(C)C(=O)C3=C(O)C4(CC(C=O)=CC(OC(C)=O)C4C=C2C)OC3=O)CC1(C)[N+](=O)[O-] (stereo not shown) [Compound 56] |  |  |  | 0.63 |  |  |  | 
9 | COC(=O)NC1C(C)OC(OC2CC=C(C)C3C=CC4C(OC5C=CC(O)C(C)O5)C(C)CC(C)C4C3(C)C(=O)C3=C(O)C4(CC(C=O)=CC(OC(C)=O)C4C=C2C)OC3=O)CC1(C)[N+](=O)[O-] (stereo not shown) [Compound 60] | — | — | >83.3 µg/mL |  | 526 |  |  | 
10 | CC[Si](CC)(CC)OC1C=CC(OC2C(C)CC(C)C3C2C=CC2C(C)=CCC(OC4CC(C)([N+](=O)[O-])C(NC(=O)OC)C(C)O4)C(C)=CC4C(OC(C)=O)C=C(C=O)CC45OC(=O)C(=C5O)C(=O)C23C)OC1C (stereo not shown) [Compound 63] | — | — | >91.7 µg/mL | 0.72 |  |  |  | 
11 | COC(=O)NC1C(C)OC(OC2C/C=C(\C)C3C=CC4C(OC5CC(OC6CCC(OC7CC(OC(C)=O)C(O)C(C)O7)C(C)O6)C(OC(C)=O)C(C)O5)C(C)CC(C)C4C3(C)C(=O)C3=C(O)C4(CC(C=O)=CC(OC(C)=O)C4/C=C/2C)OC3=O)CC1(C)[N+](=O)[O-] (stereo not shown) [Compound 65] | — | — | 2.34 µg/mL (≈ 1.82 µM) | 0.52 | 659 |  |  | 
12 | COC(=O)NC1C(C)OC(OC2CC=C(C)C3C=CC4C(OC5CC(OC(C)=O)C(OC(C)=O)C(C)O5)C(C)CC(C)C4C3(C)C(=O)C3=C(O)C4(CC(C=O)=CC(OC(C)=O)C4C=C2C)OC3=O)CC1(C)[N+](=O)[O-] (stereo not shown) [Compound 59] | >66.7 µg/mL | >66.7 µg/mL | 16.7 µg/mL (≈ 16.1 µM) | 0.98 |  |  |  | 
13 | COC(=O)NC1C(C)OC(OC2C/C=C(\C)C3C=CC4C(OC5CCCCO5)C(C)CC(C)C4C3(C)C(=O)C3=C(O)C4(CC(C=O)=CC(OC(C)=O)C4/C=C/2C)OC3=O)CC1(C)[N+](=O)[O-] (stereo not shown) [Compound 51] | 1.56 µg/mL (≈ 1.72 µM) | 1.56 µg/mL (≈ 1.72 µM) | 6.25 µg/mL (≈ 6.88 µM) | 1.36 | 460 |  |  | 
14 | COC(=O)NC1C(C)OC(OC2CC=C(C)C3C=CC4C(OC5CC(OCc6ccccc6)C(OCc6ccccc6)C(COCc6ccccc6)O5)C(C)CC(C)C4C3(C)C(=O)C3=C(O)C4(CC(C=O)=CC(O)C4C=C2C)OC3=O)CC1(C)[N+](=O)[O-] (stereo not shown) [Compound 55] |  |  |  |  |  | 448 | 106 | 
15 | COC(=O)NC1C(C)OC(OC2CC=C(C)C3C=CC4C(OC5(C)OC6OC(COC(C)=O)C(OC(C)=O)C(OC(C)=O)C6O5)C(C)CC(C)C4C3(C)C(=O)C3=C(O)C4(CC(C=O)=CC(OC(C)=O)C4C=C2C)OC3=O)CC1(C)[N+](=O)[O-] (stereo not shown) [Compound 66] | 60.0 µg/mL (≈ 51.9 µM) | 60.0 µg/mL (≈ 51.9 µM) | >60.0 µg/mL | 1.4 |  |  |  | 
